# Source: patent US20040242459A1 (priority 2001, published 2004)
# Legend:
# [1] = system: PPAR-α, PPAR-γ and PPAR-δ; experiment: Classification of ligands according to their PPAR activity (Table A); parameters: species or system human
# [2] = target: T1, recombinant human PPARδ (GST-PPARδ) (Homo sapiens, UniProt Q03181); experiment: Scintillation Proximity Assay, displacement of [3H2]Compound B from PPARδ; type: binding; settings: human PPARδ binding; read-out: IC50 (μM: SPA or BND) Delta
# T1 construct: The full length human cDNAs for PPARδ and PPARα were subcloned into the pGEX-KT expression vector; made in house; host or cells: E. coli
# T1 sequence (Q03181 1-441): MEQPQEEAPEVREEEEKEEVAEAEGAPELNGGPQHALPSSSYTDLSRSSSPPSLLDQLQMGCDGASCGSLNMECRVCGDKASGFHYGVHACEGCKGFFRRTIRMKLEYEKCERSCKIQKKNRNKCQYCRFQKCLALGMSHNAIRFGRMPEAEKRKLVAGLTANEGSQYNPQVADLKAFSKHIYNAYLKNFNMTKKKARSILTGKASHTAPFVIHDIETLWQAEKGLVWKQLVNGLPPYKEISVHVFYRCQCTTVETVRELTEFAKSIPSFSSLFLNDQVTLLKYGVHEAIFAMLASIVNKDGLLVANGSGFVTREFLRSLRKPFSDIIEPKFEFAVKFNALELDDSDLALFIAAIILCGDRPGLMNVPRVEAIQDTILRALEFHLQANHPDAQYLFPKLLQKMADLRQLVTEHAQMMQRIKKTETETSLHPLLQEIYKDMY
# From the text: (§1) As an approach to identifying human PPAR agonists, a Scintillation Proximity Assay was used to characterize PPAR-γ, PPAR-δ, and PPAR-α ligands.
# (§2) Human PPARγ2, human PPARδ and human PPARα were expressed as GST-fusion proteins in E. coli. The full length human cDNA for PPARγ 2 was subcloned into the pGEX-2 T expression vector (Amersham Pharmacia Biotech, Inc.). The full length human cDNAs for PPARδ and PPARα were subcloned into the pGEX-KT expression vector (Amersham Pharmacia Biotech, Inc.). E. coli containing the respective plasmids were propagated, induced, and harvested by centrifugation. The resuspended pellet was broken in a French press and debris removed by centrifugation. Recombinant human PPAR receptors were purified by affinity chromatography on glutathione sepharose. After application to the column, and one wash, receptor was eluted with glutathione. Glycerol (10%) was added to stabilize the receptor and aliquots were stored at −80° C.
# (§3) After incubation for ˜16 h at 15° C. with shaking, the assay plates were counted in a Packard Topcount with quench correction.
# [3] = system: adjuvant-induced arthritis in female Lewis rats
# Procedure: Nine groups of 10 rats each were injected with an emulsion containing 0.5 mg of Mycobacterium butyricum in 0.1 ml of light mineral oil, and a negative control group of 10 rats was not injected with adjuvant. Body weights, primary (injected) and contralateral (non-injected) paw volumes (determined by mercury displacement plethysmography) and lateral radiographs (obtained under Ketamine and Xylazine anesthesia) were determined before (day-1) and at various time points including 21 days following adjuvant injection. The rats were anesthetized with an intramuscular injection of 0.03-0.1 ml of a combination of Ketamine (87 mg/kg) and Xylazine (13 mg/kg) for radiographs and injection of adjuvant. Lateral to medial radiographs were made of both hind paws on days 0 and 21 for using the Faxitron (45 kVp, 30 seconds or 45 kVp, 1 second) and Kodak X-OMAT TL film, and were developed in an automatic processor. […] Specific criteria were used to establish the numerical grade of severity for each radiographic change. The maximum possible score per foot was 26. Compounds or vehicle were administered prophylactically beginning post injection of adjuvant and continuing for 21 days. The Compounds were prepared weekly, refrigerated in the dark until used, and vortex mixed immediately prior to administration. […] The liver, thymus and spleens of all rats were removed and weighed and both hind paws were removed and radiographed.
# Two-factor (‘treatment’ and ‘time’) analysis of variance with repeated measures on ‘time’ were applied to the percent changes for body weight and foot volumes and to the rank-transformed radiographic total scores. A post hoc Dunnett's test was conducted to compare the effect of treatments to vehicle. A one-way analysis of variance was applied to the thymic and spleen weights followed by the Dunnett's test to compare the effect of treatments to vehicle.
# Compounds or vehicle (0.5% Methocel in sterile water) were administered by oral gavage once daily for 21 days following induction of arthritis in female Lewis rats via the sub plantar injection of 0.1 ml of light mineral oil containing 0.5 mg of Mycobacterium butyricum. Control animals were not injected with adjuvant. Body weights were measured 1 day prior to (i.e. day 0) and at 14 and 21 days post induction of arthritis. The data in Table 1 represent the mean increase or decrease in body weight ±1 standard deviation for groups of 9 to 10 animals.
# Compounds or vehicle (0.5% Methocel in sterile water) were administered by oral gavage once daily for 21 days following induction of arthritis in female Lewis rats via the sub plantar injection of 0.1 ml of light mineral oil containing 0.5 mg of Mycobacterium butyricum. Control animals were not injected with adjuvant.
# (§4) Injected foot volumes were measured by mercury displacement plethysmography prior to induction of arthritis, and on days 4, 14 and 21 post induction of arthritis. The data represent the mean increase in foot volume ±1 standard deviation for groups of 9 to 10 animals. The extent of paw swelling in compound-treated animals was compared to the mean of that in the vehicle-treated group, and percentage inhibition was calculated for each dose level of compound.
# as §4, with “Contralateral foot” for “Injected foot”, “prior to,” for “prior to induction of arthritis,”, “and at” for “and on”, “days” for “days 4,”
# […] Data represent the mean weights of organs in mg ±1 standard deviation for groups of 9 to 10 animals.
# Total radiographic scores were derived from examination of lateral radiographs obtained prior to, and on day 21 post induction of arthritis.
# [4] = target: T2, recombinant human PPARα (GST-PPARα) (Homo sapiens, UniProt Q07869); experiment: Scintillation Proximity Assay, displacement of [3H2]Compound A from PPARα; type: binding
# T2 construct: The full length human cDNAs for PPARδ and PPARα were subcloned into the pGEX-KT expression vector; made in house; host or cells: E. coli
# T2 sequence (Q07869 1-468): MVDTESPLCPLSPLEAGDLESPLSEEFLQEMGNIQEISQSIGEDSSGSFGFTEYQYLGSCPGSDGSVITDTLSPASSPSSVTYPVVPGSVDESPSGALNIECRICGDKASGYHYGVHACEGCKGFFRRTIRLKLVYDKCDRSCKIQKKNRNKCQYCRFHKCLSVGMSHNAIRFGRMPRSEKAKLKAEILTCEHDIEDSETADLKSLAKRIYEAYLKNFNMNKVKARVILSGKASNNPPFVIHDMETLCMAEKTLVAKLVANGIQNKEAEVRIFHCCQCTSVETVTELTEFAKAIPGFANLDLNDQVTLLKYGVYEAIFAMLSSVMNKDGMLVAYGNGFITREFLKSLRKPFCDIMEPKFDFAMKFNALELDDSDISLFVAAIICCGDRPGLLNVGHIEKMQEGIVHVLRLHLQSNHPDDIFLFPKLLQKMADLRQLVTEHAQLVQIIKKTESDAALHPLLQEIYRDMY
# From the text: as §1, §2, §3
# [5] = target: T3, recombinant human PPARγ (GST-PPARγ) (Homo sapiens, UniProt P37231); experiment: Scintillation Proximity Assay, displacement of [3H2]Compound A from PPARγ; type: binding; settings: SPA, radioligand
# T3 construct: The full length human cDNA for PPARγ 2 was subcloned into the pGEX-2 T expression vector; made in house; host or cells: E. coli
# T3 sequence (P37231 1-505): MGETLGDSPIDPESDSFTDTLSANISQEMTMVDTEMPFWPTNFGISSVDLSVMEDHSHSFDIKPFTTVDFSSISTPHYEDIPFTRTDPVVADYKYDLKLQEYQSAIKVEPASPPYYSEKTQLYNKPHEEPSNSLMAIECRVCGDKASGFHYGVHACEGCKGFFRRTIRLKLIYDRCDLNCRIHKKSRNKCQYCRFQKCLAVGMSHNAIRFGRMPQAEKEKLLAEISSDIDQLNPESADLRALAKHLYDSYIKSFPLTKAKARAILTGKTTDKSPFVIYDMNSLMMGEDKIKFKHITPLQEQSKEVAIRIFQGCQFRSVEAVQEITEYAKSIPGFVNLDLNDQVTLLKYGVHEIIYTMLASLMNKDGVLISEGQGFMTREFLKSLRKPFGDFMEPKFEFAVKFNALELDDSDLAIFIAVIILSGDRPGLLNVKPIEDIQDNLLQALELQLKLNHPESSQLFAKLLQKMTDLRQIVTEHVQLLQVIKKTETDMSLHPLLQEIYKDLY
# From the text: as §1, §2, §3
# [6] = weight at necropsy, day of euthanasia 21 (Compound 1, indomethacin) or 15 (Compounds 2-6), mean ± SD
Structure (SMILES),PPAR Activity [1],IC50 [2],"Change in Secondary Foot Volume Day 14-0 ([3]; contralateral paw, p.o. q.d., Compounds 1, 2, 4, 6 30 mg/kg/day, Compound 3 50, Compound 5 100, indomethacin 2, mean ± SD)","Secondary Foot Volume % Inhibition Compared to Vehicle Day 14-0 ([3]; contralateral paw, same doses p.o. q.d.)","Change in Primary Foot Volume Day 4-0 ([3]; injected paw, p.o. q.d., Compounds 1, 2, 4, 6 30 mg/kg/day, Compound 3 50, Compound 5 100, indomethacin 2, mean ± SD)","Primary Foot Volume % Inhibition Compared to Vehicle Day 4-0 ([3]; injected paw, same doses p.o. q.d.)","Change in Primary Foot Volume Day 14-0 ([3]; injected paw, same doses p.o. q.d., mean ± SD)","change in body weight Day 14-0 ([3]; p.o. q.d., Compounds 1, 2, 4, 6 30 mg/kg/day, Compound 3 50, Compound 5 100, indomethacin 2 mg/kg/day, mean ± SD)","prevention of swelling of primary or secondary paws ([3]; up to day 14, rats then euthanized)","Spleen [3, 6]","Thymus [3, 6]","IC50 ([4]; human PPARα binding, read-out: IC50 (μM: SPA or BND) Alpha)",Kd [5],"Kd ([4]; SPA, radioligand)"
O=C(O)c1c(Sc2ccccc2)c2cc(Cl)ccc2n1Cc1ccc(Cl)cc1 [Compound 3],Gamma Antagonist,> 50 µM,869 ± 291 µL,0%,1853 ± 262 µL,0%,2606 ± 587 µL,−6.6 ± 6.1 grams,failed to prevent swelling of either the primary or secondary paws,720.5 ± 155.1 mg,152.7 ± 27.9 mg,> 10 µM,,
"CCCc1c(OCCCCOc2cccc(CC(=O)O)c2)ccc2c(-c3ccccc3)noc12 [Compound A, (3-(4-(3-phenyl-7-propyl-6-benz-[4,5]-isoxazoloxy)butyloxy))phenylacetic acid, reference compound]",,,,,,,,,,,,,~2.7 nM,~10 nM
